In this assay the target is T1, human glutamate receptor GluR1-flip (Homo sapiens, UniProt P42261).
T1 construct: expressed in transfected cells; host or cells: Chinese Hamster Ovary (CHO) cells
The experiment in a line: Whole cell patch clamp on CHO cells expressing human GluR1-flip; glutamate-induced current desensitization. The class given is cell-based. The conditions noted are these: 1 mM test compound co-applied with 10 mM L-glutamate after 30 seconds pre-incubation, hGluR1(i), whole cell voltage clamp. The text has this: In this experiment we investigated the influence of the test compounds on the membrane currents when determined electrophysiologically on Chinese Hamster Ovary (CHO) cells capable of expressing the human glutamate receptor GluR1-flip, obtained essentially as described by Fletcher E J & Lodge D, Pharmacol. Ther. 1996 70 (1) 65-89, the current through the channels being recorded using patch clamp technique in whole cell voltage clamp mode.
Current responses were induced by applying L-glutamate at a saturating concentration of 10 mM, and the modulatory effect of the test compound was evaluated by co-applying the test compound and L-glutamate upon a 30 seconds pre-incubation period, and comparing with […].
Background: The patch-clamp technique gives a direct electrical read-out from membranes.

T1 sequence (P42261 19-906 isoform P42261-2 limits assumed): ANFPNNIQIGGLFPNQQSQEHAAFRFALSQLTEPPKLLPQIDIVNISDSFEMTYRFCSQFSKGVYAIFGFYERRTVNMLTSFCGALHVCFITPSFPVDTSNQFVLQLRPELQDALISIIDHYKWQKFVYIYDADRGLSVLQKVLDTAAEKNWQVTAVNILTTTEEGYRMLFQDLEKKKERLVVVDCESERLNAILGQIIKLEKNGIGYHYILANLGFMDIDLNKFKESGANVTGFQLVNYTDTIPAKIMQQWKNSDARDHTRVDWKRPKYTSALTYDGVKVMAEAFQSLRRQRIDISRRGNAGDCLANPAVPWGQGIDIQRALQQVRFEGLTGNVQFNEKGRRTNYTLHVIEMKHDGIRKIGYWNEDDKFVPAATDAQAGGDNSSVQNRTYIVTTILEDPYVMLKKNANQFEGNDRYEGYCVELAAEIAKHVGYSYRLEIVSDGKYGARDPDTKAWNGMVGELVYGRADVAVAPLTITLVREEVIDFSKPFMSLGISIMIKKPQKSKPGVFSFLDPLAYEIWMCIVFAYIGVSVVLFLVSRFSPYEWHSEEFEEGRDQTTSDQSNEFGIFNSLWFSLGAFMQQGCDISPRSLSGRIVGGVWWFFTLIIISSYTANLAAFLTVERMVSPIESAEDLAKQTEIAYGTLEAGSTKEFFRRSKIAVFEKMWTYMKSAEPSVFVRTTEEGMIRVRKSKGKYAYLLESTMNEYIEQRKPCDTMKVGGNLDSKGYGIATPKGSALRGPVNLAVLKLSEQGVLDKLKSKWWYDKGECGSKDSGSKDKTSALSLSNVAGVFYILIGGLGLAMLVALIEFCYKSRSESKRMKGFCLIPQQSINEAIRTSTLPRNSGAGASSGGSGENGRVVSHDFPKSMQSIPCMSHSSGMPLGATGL

Consider `O=C(c1ccc2nccnc2c1)N1CCCCC1` [Reference compound, Piperidin-1-yl-quinoxalin-6-yl-methanone], for which the degree of desensitization is given as 98.0+/−0.8%. Next, `CC1CCCN(C(=O)c2ccc3nccnc3c2)C1` (racemic) [Compound A4, (±)-(3-Methyl-piperidin-1-yl)-guinoxalin-6-yl-methanone]: 95.2+/−0.2%.
